{"source": "patent US5776927A", "about": "“Methionine sulfone and S-substituted cysteine sulfone derivatives as enzyme inhibitors” (Corvas International, Inc., priority 1994, dated 1998)", "key": {"[1]": {"system": "thrombotic occlusion of the rat carotid artery", "experiment": "Rat model of FeCl3-induced platelet-dependent arterial thrombosis", "format": "in vivo, rat (male Harlan Sprague Dawley)", "conditions": "i.v. bolus", "from_the_text": "Kurz, K. D., Main, B. W., and Sandusky, G. E., Thromb. […] In this model a platelet-rich, occlusive thrombus is formed in a segment of the rat carotid artery treated locally with a fresh solution of FeCl3 absorbed to a piece of filter paper. The FeCl3 is thought to diffuse into the treated segment of artery and causes de-endothelialization of the affected vessel surface. […] The effect of a test compound on the incidence of occlusive thrombus formation following the application of the FeCl3 is monitored by ultrasonic flowtometry and is used as the primary end point. The use of flowtometry to measure carotid artery blood flow, is a modification of the original procedure in which thermal detection of clot formation was employed. Kurz, K. D., Main, B. W., and Sandusky, G. E., Thromb. […] Male Harlan Sprague Dawley rats (420-450 g) were acclimated at least 72 hours prior to use and fasted for 12 hours prior to surgery with free access to water. […] Blood pressure, blood flow, heart rate, and respiration were monitored for 60 minutes. The incidence of occlusion (defined as the attainment of zero blood flow) was recorded as the primary end point. […] This allows a direct comparison of the antithrombotic efficacy of BzlSO2 -[…] with other antithrombotic agents which have also been evaluated in this model as described above."}, "citrated rat plasma": {"system": "citrated rat plasma", "experiment": "Ex vivo anticoagulant effect, activated partial thromboplastin time (APTT), rat plasma", "conditions": "control clotting time 19.75 sec set to 1.0", "description": "(§1) The ex vivo anticoagulant effects of BzlSO2 -Met(SO2)-Pro-Arg-al was determined by measuring the prolongation of the activated partial thromboplastin time (APTT) over a broad concentration range of the added inhibitor, using pooled normal human and rat plasma. Fresh frozen citrated pooled normal human plasma was obtained from George King Biomedical, Overland Park, Kans. Pooled normal rat plasma was prepared from citrated whole blood collected from anesthetized rats using standard procedures. The plasma was flash frozen and stored at -80° C. until use. Measurements APTT was made using the Coag-A-Mate RA4 automated coagulometer (General Diagnostics, Organon Technica, Oklahoma City, Okla.) using the Automated APTT reagent (Organon Technica, Durham, N.C.) as the initiator of clotting according to the manufacturers instructions.\n(§2) The assay was conducted by making a series of dilutions of the test compounds in rapidly thawed plasma followed by adding 200 microliters to the wells of the assay carousel."}, "citrated human plasma": {"system": "citrated human plasma", "experiment": "Ex vivo anticoagulant effect, activated partial thromboplastin time (APTT), human plasma", "conditions": "citrated pooled normal human plasma; control clotting time 28.3 sec set to 1.0", "description": "as §1, §2"}}, "data": [{"smiles": "CS(=O)(=O)CC[C@H](NS(=O)(=O)Cc1ccccc1)C(=O)N1CCC[C@H]1C(=O)N[C@H](C=O)CCCNC(=N)N", "note": "[Example 27, N-benzylsulfonyl-L-methionine sulfone-L-proline-L-argininal]", "values": [{"measurement": "efficacy in preventing thrombus formation (result in words)", "setting": "[1]", "result": "reduction in the incidence of thrombotic occlusion"}, {"measurement": "prolongation of the APTT", "setting": "citrated rat plasma", "result": "prolonged the APTT in a dose dependent manner in both rat and human plasma"}, {"measurement": "prolongation of the APTT", "setting": "citrated human plasma", "result": "prolonged the APTT in a dose dependent manner in both rat and human plasma"}]}]}
